Laboratory results as given in patent publication US20230099293A1, “OGA INHIBITOR COMPOUNDS” (priority 2019, published 2023).

Legend:
[1] = biological target: T1, recombinant human Meningioma Expressed Antigen 5 (MGEA5), also referred to as O-GlcNAcase (OGA) (Homo sapiens, UniProt O60502); assay: OGA biochemical assay (inhibition of FM-GlcNAc hydrolysis, fluorescence); conditions: for IC50: Enzymatic hOGA, pIC50, Table 5; for IC50 / Enzymatic hOGA; pIC50: full length OGA 2 nM, FM-GlcNAc 100 uM, 6 h at room temperature; for Emax: read-out: Enzymatic Emax (%); for Enzymatic hOGA; pIC50: Table 5
T1 construct: Full length OGA enzyme was purchased at OriGene (cat #TP322411); purchased OriGene TP322411
T1 sequence (O60502 1-916): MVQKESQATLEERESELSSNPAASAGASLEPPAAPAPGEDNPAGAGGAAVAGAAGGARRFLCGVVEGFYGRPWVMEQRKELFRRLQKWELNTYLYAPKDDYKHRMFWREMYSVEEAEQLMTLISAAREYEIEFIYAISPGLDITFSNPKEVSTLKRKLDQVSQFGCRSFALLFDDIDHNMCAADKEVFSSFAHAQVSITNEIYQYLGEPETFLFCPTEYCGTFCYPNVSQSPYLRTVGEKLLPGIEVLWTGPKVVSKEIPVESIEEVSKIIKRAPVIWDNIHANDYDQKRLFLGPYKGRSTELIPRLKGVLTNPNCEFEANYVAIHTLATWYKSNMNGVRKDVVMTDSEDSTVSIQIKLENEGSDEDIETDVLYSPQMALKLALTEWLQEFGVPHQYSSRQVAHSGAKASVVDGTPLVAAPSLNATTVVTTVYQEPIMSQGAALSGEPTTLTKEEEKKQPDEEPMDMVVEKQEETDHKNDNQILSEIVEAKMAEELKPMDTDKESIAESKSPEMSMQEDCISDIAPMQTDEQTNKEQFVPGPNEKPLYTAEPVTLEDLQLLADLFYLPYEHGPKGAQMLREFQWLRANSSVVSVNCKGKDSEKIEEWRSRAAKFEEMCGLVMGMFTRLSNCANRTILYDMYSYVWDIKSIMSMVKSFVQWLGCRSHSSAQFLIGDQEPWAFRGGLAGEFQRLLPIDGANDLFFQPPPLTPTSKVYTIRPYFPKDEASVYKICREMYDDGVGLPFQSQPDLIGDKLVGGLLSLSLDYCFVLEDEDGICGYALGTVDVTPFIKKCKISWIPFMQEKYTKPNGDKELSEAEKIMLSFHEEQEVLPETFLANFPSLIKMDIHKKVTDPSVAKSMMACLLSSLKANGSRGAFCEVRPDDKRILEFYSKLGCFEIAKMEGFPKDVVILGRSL
Protocol: The hydrolysis FM-GlcNAc (Marker Gene technologies, cat #M1485) results in the formation of β-D-N-glucosamineacetate and fluorescein. The fluorescence of the latter can be measured at excitation wavelength 485 nm and emission wavelength 538 nm. An increase in enzyme activity results in an increase in fluorescence signal. Full length OGA enzyme was purchased at OriGene (cat #TP322411). The enzyme was stored in 25 mM Tris.HCl, pH 7.3, 100 mM glycine, 10% glycerol at −20° C. […] The assay was performed in 200 mM Citrate/phosphate buffer supplemented with 0.005% Tween-20. 35.6 g Na2HIPO42H2O (Sigma, #C0759) were dissolved in 1 L water to obtain a 200 mM solution. […] The buffer to stop the reaction consists of a 500 mM Carbonate buffer, pH 11.0. […] OGA was used at a 2 nM concentration and FM-GlcNAc at a 100 uM final concentration. Dilutions were prepared in assay buffer.
Plates were pre-incubated for 60 min at room temperature and then 2 μl FM-GlcNAc substrate mix added. […] Plates were briefly centrifuged for 1 min at 1000 rpm and incubate at room temperature for 6 h. To stop the reaction 5 μl STOP buffer were added and plates centrifuge again 1 min at 1000 rpm. Fluorescence was quantified in the Thermo Scientific Fluoroskan Ascent or the PerkinElmer EnVision with excitation wavelength 485 nm and emission wavelength 538 nm.
For analysis a best-fit curve is fitted by a minimum sum of squares method. From this an IC50 value and Hill coefficient was obtained. High control (no inhibitor) and low control (saturating concentrations of standard inhibitor) were used to define the minimum and maximum values.

[2] = biological target: T2, hOGA (Homo sapiens, UniProt O60502); assay: OGA cellular assay (ICC detection of O-GlcNAcylated proteins in HEK293 cells inducible for P301L mutant human Tau); type: cell-based; parameters: Emax: dose or concentration left out as unconfirmed; conditions: for EC50: Cellular hOGA, pEC50, Table 5; for Emax: HEK293, read-out: Cellular Emax (%)
T2 construct: endogenous in cells; host or cells: HEK293 cells inducible for P301L mutant human Tau (isoform 2N4R)
T2 sequence (O60502 1-916): T1 sequence (O60502 1-916)
Protocol: HEK293 cells inducible for P301L mutant human Tau (isoform 2N4R) were established at Janssen. Thiamet-G was used for both plate validation (high control) and as reference compound (reference EC50 assay validation). OGA inhibition is evaluated through the immunocytochemical (ICC) detection of O-GlcNAcylated proteins by the use of a monoclonal antibody (CTD110.6; Cell Signaling, #9875) detecting O-GlcNAcylated residues as previously described (Dorfmueller et al. 2010 Chemistry & biology, 17:1250). Inhibition of OGA will result in an increase of O-GlcNAcylated protein levels resulting in an increased signal in the experiment. Cell nuclei are stained with Hoechst to give a cell culture quality control and a rough estimate of immediate compounds toxicity, if any. ICC pictures are imaged with a Perkin Elmer Opera Phenix plate microscope and quantified with the provided software Perkin Elmer Harmony 4.1.
Cells were propagated in DMEM high Glucose (Sigma, #D5796) following standard procedures. 2 days before the cell assay cells are split, counted and seeded in Poly-D-Lysine (PDL) coated 96-wells (Greiner, #655946) plate at a cell density of 12,000 cells per cm^2 (4,000 cells per well) in 100 μl of Assay Medium (Low Glucose medium is used to reduce basal levels of GlcNAcylation) (Park et al. 2014 The Journal of biological chemistry 289:13519). At the day of compound test medium from assay plates was removed and replenished with 90 μl of fresh Assay Medium. 10 μl of compounds at a 10 fold final concentration were added to the wells. Plates were centrifuged shortly before incubation in the cell incubator for 6 hours. DMSO concentration was set to 0.2%. Medium is discarded by applying vacuum. For staining of cells medium was removed and cells washed once with 100 μl D-PBS (Sigma, #D8537). From next step onwards unless other stated assay volume was always 50 μl and incubation was performed without agitation and at room temperature. Cells were fixed in 50 μl of a 4% paraformaldehyde (PFA, Alpha aesar, #043368) PBS solution for 15 minutes at room temperature. […] Before analysis samples were washed 2 times manually for 5 minutes in ICC base buffer.
Imaging is performed using Perkin Elmer Phenix Opera using a water 20× objective and recording 9 fields per well. Intensity readout at 488 nm is used as a measure of O-GlcNAcylation level of total proteins in wells. To assess potential toxicity of compounds nuclei were counted using the Hoechst staining. IC50-values are calculated using parametric non-linear regression model fitting. As a maximum inhibition Thiamet Gat a 200 uM concentration is present on each plate. In addition, a concentration response of Thiamet G is calculated on each plate.

[3] = HEK293 P301L Tau cells, 6 hours incubation, O-GlcNAcylation readout
[4] = Table 5, HEK293 P301L Tau cells, 6 hours incubation, O-GlcNAcylation readout
[5] = second table, averaged values over several runs, obtained after recalibration of the equipment

SMILES	IC50 [1]	Emax [1]	melting point	EC50 [2, 3]	Emax [2]	Enzymatic hOGA; pIC50 [1]	Cellular hOGA; pEC50 [2, 4]	Cellular hOGA; pEC50 [2, 5]
Cc1cc(C(F)(F)F)cc(C)c1Nc1ncc(Cl)c2c1ncn2CC(=O)N(C)C [Compound 62, 2-[7-Chloro-4-[2,6-dimethyl-4-(trifluoromethyl)anilino]imidazo[4,5-c]pyridin-1-yl]-N,N-dimethyl-acetamide]	692 nM	91%	239.9 °C	> 1000 nM	13%			
Cc1cc(C(F)(F)F)cc(C)c1Nc1ncc(C2CC2)c2c1ncn2CC(=O)N(C)C [Compound 75]		97%	246.7 °C		22%	6.28	<6	
Cc1cc(OC(F)(F)F)cc(Cl)c1Nc1nccc2c1ncn2CC(=O)N(C)C [Compound 16]	13.5 nM	101%	182.81 °C	316 nM	66%			
Cc1cc(C(F)(F)F)cc(C)c1Nc1nccc2c1ncn2Cc1ccon1 [Compound 59, N-(2,6-dimethyl-4-(trifluoromethyl)phenyl)-1-(isoxazole-3-ylmethyl)-1H-imidazo[4,5-c]pyridine-4-amine]	9.12 nM	101%	154.7 °C		72%			
CNC(=O)Cn1cnc2c(Nc3c(C)cc(C(F)(F)F)cc3C)nccc21 [Compound 4, 2-(4-((2,6-Dimethyl-4-(trifluoromethyl)phenyl)amino)-1H-imidazo[4,5-c]pyridin-1-yl)-N-methylacetamide]	3.39 nM	98%	275.1 °C	55 nM	101%			
Cc1nn(-c2ccc(F)cn2)c(C)c1Nc1nccc2c1ncn2CC(=O)N(C)C [Compound 32]	174 nM	100%	256.6 °C	> 1000 nM	34%			
Cc1ccc(C(F)(F)F)c(C)c1Nc1nccc2c1ncn2CC(=O)N(C)C [Compound 18]	16.2 nM	99%	250 °C	631 nM	56%			
CC(=O)n1nc(C)c(Nc2nccc3c2ncn3CC(=O)N(C)C)c1C [Compound 37]	> 10000 nM	2%	175.4 °C	> 1000 nM	8%			
Cc1cc(C(F)(F)F)cc(Cl)c1Nc1nccc2c1ncn2CC(=O)N(C)C [Compound 15]	14.1 nM	98%	214.14 °C	204 nM	64%			
Cc1cc(C(F)(F)F)cc(C)c1Nc1nccc2c1ncn2-c1ncc(F)cn1 [Compound 69]		80%	198.2 °C		6%	6.14	<6	6.14
Cc1ccc(-n2nc(C)c(Nc3nccc4c3ncn4CC(=O)N(C)C)c2C)cc1 [Compound 45]	23.4 nM	94%	214.9 °C	550 nM	94%			
Cc1cc(C(F)(F)F)cc(C)c1Nc1nccc2c1ncn2C(C)(C)C(=O)N(C)C [Compound 71]		6%	260.1 °C		27%	<5	<6	<6
Cc1cc2c(cnn2C)c(C)c1Nc1nccc2c1ncn2CC(=O)N(C)C [Compound 13]	13.8 nM	98%	265.1 °C	69.2 nM	113%			
Cc1cc(C(F)(F)F)cc(C(C)C)c1Nc1nccc2c1ncn2CC(=O)N(C)C [Compound 12]	10.7 nM	101%	234.4 °C	46.8 nM	88%			
CN(C)C(=O)Cn1cnc2c(Nc3c(Cl)cc(F)cc3Cl)nccc21 [Compound 21]	30.9 nM	95%	243.4 °C	123 nM	69%			
CC(C)c1cc(C(F)(F)F)cc(F)c1Nc1nccc2c1ncn2CC(=O)N(C)C [Compound 31]	87.1 nM	104%	191.4 °C	> 1000 nM	36%			
Cc1cc(C(F)(F)F)cc(C)c1Nc1nccc2c1ncn2CC(=O)N(C)CC(F)(F)F [Compound 77]		103%	228.3 °C		67%	7.23	6.37	
Cc1cc(C(F)(F)F)cc(F)c1Nc1nccc2c1ncn2CC(=O)N(C)C [Compound 25]	135 nM	96%	226.6 °C	> 1000 nM	29%			
CCN(C)C(=O)Cn1cnc2c(Nc3c(C)cc(C(F)(F)F)cc3C)nccc21 [Compound 63, 2-[4-[2,6-Dimethyl-4-(trifluoromethyl)anilino]imidazo[4,5-c]pyridin-1-yl]-N-ethyl-N-methyl-acetamide]	9.33 nM	98%	186.5 °C	89.1 nM	100%			
